Laboratory results: US9095567B2, “Vaccine formulations” (priority 2010, dated 2015)

Key:
Format in all cases: cell-based
[1] = tested on: Staphylococcus aureus, Pseudomonas aeruginosa, Candida albicans, Aspergillus niger; test: Preservative effectiveness test, single challenge, all challenge organisms (pharmacopeial acceptance criteria); details: for preservative effectiveness after storage: 2-PE at 3.5 to 5.0 mg/dose
Text: For ascertaining preservative levels according to U.S. and European Pharmacopeias (USP and EP, respectively), the vaccine formation is inoculated once with approximately 10^5 to 10^6 CFU/ml at time 0 (CFU=colony forming units) of:
USP 29 NF 24 Supplement 2 (USP) requires that, after an inoculation of bacterial micro-organism(s), there is at least 1.0 log reduction from the initial calculated count (i.e., at time of inoculation) at 7 days, at least 3.0 log reduction at 14 days from the previous value measured, and no increase at 28 days compared to the previous value measured. For yeast and fungi, the USP requirement is for there to be no increase from time of inoculation at 7, 14 and 28 days.
EP requirements are more stringent. EP 5th Edition 5.6 (5.1.3) requirements for parenteral and ophthalmic preparations has two components: Category A and Category B. Category A (EP-A) requires, for bacteria, at least 2.0 log reduction from the initial calculated count at 6 hours after inoculation, at least 3.0 log reduction from the previous value measured at 24 hours and no recovery at 28 days. Category B (EP-B) requires, for bacteria, at least 1.0 log reduction from the initial calculated count at 24 hours, at least 3.0 log reduction at 7 days from the previous value measured and not more than 0.5 log increase from the previous value measured (i.e., no increase) at 28 days. For yeast and fungi, Category A requires at least 2.0 log reduction at 7 days from the initial calculated count, and no increase at 28 days from the previous measured value; and Category B requires at least 1.0 log reduction from the initial calculated count at 14 days and no increase at 28 days from the previous measured value.
(§1) Thirty milliliters (ml) of each vaccine formulation with and without Thimerosal or 2-PE at indicated concentrations or saline containing Thimerosal at 0.02% were inoculated in triplicates with a suspension of each test organism to achieve an inoculum density of approximately 10^5 to 10^6 CFU/ml at time 0 (CFU=colony forming units). […] Samples were mixed to ensure even distribution of challenged organisms. Another 30 ml of vaccine in triplicate (with and without preservative) were used as a negative control and spiked with the culture media alone to evaluate the inherent contamination that might be present in the sample or media. Each of the three series of vaccines, and positive and negative controls, was then separately incubated at 20 to 25° C. Aliquots (1 ml) of the challenged samples and controls (or their appropriate serial ten fold dilutions) were enumerated by plate count in duplicates at time 0 and at intervals of 6 hours, 24 hours, 7 days, 14 days and 28 days post-inoculation.
(§2) USP 29 NF 24 Supplement 2 (USP) requires that, after an inoculation of bacterial micro-organism(s), there is at least 1.0 log reduction from the initial calculated count (i.e., at time of inoculation) at 7 days, at least 3.0 log reduction at 14 days from the previous value measured and no increase at 28 days from the previous measured value. For yeast and fungi, the USP requirement is for there to be no increase from the time of inoculation to 7, 14 and 28 days.
(§3) EP requirements are more stringent. EP 5th Edition 5.6 (5.1.3) requirements for parenteral and ophthalmic preparations has two components: Category A and Category B. Category A (EP-A) requires, for bacteria, at least 2.0 log reduction from the initial calculated count at 6 hours after inoculation, at least 3.0 log reduction at 24 hours from the previous measured value, and no recovery at 28 days. Category B (EP-B) requires, for bacteria, at least 1.0 log reduction at 24 hours from the initial calculated count, at least 3.0 log reduction at 7 days from the previous value measured and not more than 0.5 log increase at 28 days from the previous value measured (i.e., no increase).

[2] = tested on: Candida albicans (ATCC#10231); test: Preservative effectiveness test, single challenge
Text: (§4) To test for preservative effectiveness, aliquots of vaccine were inoculated with the following organisms:
as §1, §2
as §3, with “increase). For yeast and fungi, Category A requires at least 2.0 log reduction at 7 days and no increase from the previous value measured at 28 days, and Category B requires at least 1.0 log reduction at 14 days and no increase from the previous value measured at 28 days.” for “increase).”
(§5) Plates containing <300 CFU for bacteria or <100 CFU for yeast or mold were used during enumeration. For single challenge studies, arithmetic average count of all surviving micro-organisms in triplicate and on duplicate plates (6 values per time point) plus their diluted samples were measured and normalized as CFU/ml. The results are expressed as mean log10 CFU/ml reduction (compared to time 0). In this case, the count of surviving micro-organisms is evaluated at time 0 as the baseline and compared to incubation time of 6 hours, 24 hours, 7 days, 14 days and 28 days.

[3] = tested on: Staphylococcus aureus (ATCC #6538); test: Preservative effectiveness test, single challenge
Text: as §4, §1, §2
as §3, with “increase). For yeast and fungi, Category A requires at least 2.0 log reduction at 7 days and no increase from the previous value measured at 28 days, and Category B requires at least 1.0 log reduction at 14 days and no increase from the previous value measured at 28 days.” for “increase).”
as §5

[4] = 2-PE at 2.5 mg/dose, single challenge
[5] = Prev(e)nar 13 formulation, single challenge, 20 to 25° C.
[6] = Thimerosal at 0.01% in Prev(e)nar 13 vaccine formulation, single challenge
[7] = Thimerosal at 0.02% (50 μg mercury per dose), single challenge
[8] = Thimerosal at 0.04% (100 μg mercury per dose), single challenge
[9] = 0.01% Thimerosal in Prev(e)nar 13, single challenge
[10] = 0.02% Thimerosal in saline (no Prev(e)nar 13) versus vaccine formulation, single challenge

**Q.** How did the “EP-A anti-microbial effectiveness acceptance criteria” value [1] turn out when `OCCOc1ccccc1` [2-PE, 2-phenoxyethanol] was run?
**A.** Its value is “met”.

**Q.** And the “EP-B anti-microbial effectiveness acceptance criteria” value [1]?
**A.** Its value is “met”.

**Q.** And the “EP acceptance criteria A” value [1, 4]?
**A.** The value was “failed”.

**Q.** What about the “EP acceptance criteria B” value [1, 4] of the same molecule?
**A.** Its value is “failed”.

**Q.** And the “preservative acceptance criteria EP-B” value ([1]; 2-PE at 3.5 mg/dose, single challenge)?
**A.** The value was “meet”.

**Q.** And the “preservative acceptance criteria EP-B” value ([1]; 2-PE at 5 mg/dose, single challenge)?
**A.** The value was “meet”.

**Q.** What about the “preservative effectiveness after storage” value ([1]; formulations stored at 2-8° C. for two and a half years) of the same molecule?
**A.** Its value is “remained persistent”.

**Q.** What about the “preservative effectiveness after storage” value ([1]; formulations stored at 37° C. for a month) of the same molecule?
**A.** Its value is “remained persistent”.

**Q.** What about the “EP acceptance criteria B” value ([1]; 2-PE at concentrations of 3.5 to 5.5 mg/dose, single challenge) of the same molecule?
**A.** The value was “met”.

**Q.** What about the “effectiveness as a preservative compared with Thimerosal” value ([1]; Prev(e)nar 13 formulation, single challenge) of the same molecule?
**A.** Its value is “more effective”.

**Q.** What about the “EP (EP-B) vaccine safety requirements, C. albicans” value [2, 5] of the same molecule?
**A.** The value was “Fails”.

**Q.** What about the “USP vaccine safety requirements, C. albicans” value [2, 5] of the same molecule?
**A.** The value was “Meets”.

**Q.** What about the “time to reduction of S. aureus to baseline after inoculation” value ([3]; 5.0 mg/dose 2-PE in Prev(e)nar 13, single challenge) of the same molecule?
**A.** The value was 24 h.

**Q.** What about the “EP (EP-B) vaccine safety requirements, S aureus” value [3, 5] of the same molecule?
**A.** The value was “Fails”.

**Q.** What about the “USP vaccine safety requirements, S aureus” value [3, 5] of the same molecule?
**A.** Its value is “Meets”.

**Q.** How did the “contamination levels of all four inoculated micro-organisms” value ([1]; 0.01% Thimerosal in Prev(e)nar 13, single challenge, 20-25° C., 28 days) turn out when `C[CH2][Hg][S]c1ccccc1C(=O)[O-].[Na+]` [Thimerosal] was run?
**A.** Its value is “reduced”.

**Q.** And the “European acceptance criteria EP-A” value [1, 6]?
**A.** Its value is “did not meet”.

**Q.** And the “European acceptance criteria EP-B” value [1, 6]?
**A.** The value was “did not meet”.

**Q.** And the “acceptance limits established by the Japanese Pharmacopoeia” value [1, 6]?
**A.** The value was “did pass”.

**Q.** What about the “acceptance limits established by the U.S. Pharmacopoeia” value [1, 6] of the same molecule?
**A.** Its value is “did pass”.

**Q.** What about the “EP acceptance criteria A” value [1, 7] of the same molecule?
**A.** Its value is “not”.

**Q.** What about the “EP acceptance criteria B” value [1, 7] of the same molecule?
**A.** Its value is “met”.

**Q.** And the “EP acceptance criteria A” value [1, 8]?
**A.** The value was “not”.

**Q.** What about the “EP acceptance criteria B” value [1, 8] of the same molecule?
**A.** The value was “met”.

**Q.** And the “inhibition of C. albicans relative to P. aeruginosa and A. niger” value [2, 9]?
**A.** The value was “weaker”.

**Q.** And the “growth inhibitory effectiveness against C. albicans” value [2, 10]?
**A.** Its value is “slightly improved”.

**Q.** And the “reduction of contamination levels, C. albicans” value ([2]; 0.02% Thimerosal versus 0.01% in Prev(e)nar 13, single challenge)?
**A.** Its value is “more pronounced”.

**Q.** What about the “inhibition of S. aureus relative to P. aeruginosa and A. niger” value [3, 9] of the same molecule?
**A.** Its value is “weaker”.

**Q.** And the “growth inhibitory effectiveness against S. aureus” value [3, 10]?
**A.** The value was “slightly improved”.

**Q.** And the “decline of S. aureus” value ([3]; Thimerosal in Prev(e)nar 13, single challenge)?
**A.** The value was “slow decline”.
